From patent US20060216299A1, “Cell cycle targets and peptides” (Rigel Pharmaceuticals, Inc., priority 2002, published 2006)

Test system: A549.tTA cells expressing #38 and #41
Assay: Role of farnesylation in cellular localization of GFP fused #38
Format: cell-based, human
Conditions: 2 μM L-744,832, 48 hours
Experimental: #38 has a CAAX box motif in the C-terminus. A 15-carbon farnesyl or 20-carbon geranylgeranyl isoprenoid is linked to the Cys in a CAAX box motif by Farnesyl transferase or Geranylgeranyl transferase, respectively (Fu, H. W. et al., Recent Prog Horm Res, 54:315-342; discussion 342-313 (1999)). The role of farnesylation in cellular localization of #38 was examined. A549.tTA cells expressing #38 and #41 were treated with a peptidomimetic farnesyltransferase specific inhibitor, L-744,832 for 48 hours.

CC[C@H](C)[C@@H](CO[C@@H](Cc1ccccc1)C(=O)N[C@@H](CCS(C)(=O)=O)C(=O)OC(C)C)NC[C@@H](N)CS [L-744,832]
cellular localization of #38 in the presence of inhibitor: completely abolished
